Drawing on patent publication US9133157B2, “HIV protease inhibitors” (Merck Canada Inc., priority 2011, dated 2015), this text covers IC50 for 25 compounds.

In this assay the target is WT HIV-1 protease (Human immunodeficiency virus type 1 group M subtype B (isolate HXB2) (HIV-1), UniProt P04585). In words: Assay for inhibition of microbial expressed HIV protease (Procedure A, peptide substrate, HPLC fluorescence detection). The class given is biochemical. Conditions: WT HIV-1 protease 10 pM, substrate 400 micromolar, pH 5.5, 30 min preincubation, 1 hour at 30° C.; read-out: Enzyme inhibition IC50. Here is the method: The inhibition of WT HIV-1 protease was studied using the reaction of the protease (expressed in Eschericia coli) with a peptide substrate [Val-Ser-Gln-Asn-(betanaphthyl)Ala-Pro-Ile-Val (SEQ ID NO:1)]. Compounds were tested using Procedure A. In Procedure A, the test compound was first preincubated with the enzyme in assay buffer (50 mM sodium acetate, pH 5.5, 100 mM NaCl, and 0.1% BSA) for 30 minutes at room temperature. Substrate was then added to 400 micromolar in a total volume of 80 microliters containing 10 picomolar HIV-1 protease and the reaction was incubated for 1 hour at 30° C. The reaction was quenched with the addition of 120 microliters of 10% phosphoric acid. The product formation was determined after separation of product and substrate on a Zorbax Eclipse XDB-C18 column (Agilent Technologies, Santa Clara, Calif.) connected to an Agilent 1100 high performance liquid chromatography system with fluorescence detection (excitation 270 nanometer and emission 330 nanometer).
As for `CC(C)CN(C(CO)c1ccc(CNC(=O)C(NC(=O)c2ccccc2)C(c2ccccc2)c2cn[nH]c2)s1)S(=O)(=O)c1ccc2ncsc2c1` (stereo not shown) [Example 131, N-[1-[[5-[1-(1,3-benzothiazol-6-ylsulfonyl(isobutyl)amino)-2-hydroxy-ethyl]-2-thienyl]methylcarbamoyl]-2-phenyl-2-(1H-pyrazol-4-yl)ethyl]benzamide], the 50% inhibitory concentration (IC50) worked out at 79 nM. Consider `COC(=O)N[C@H](C(=O)N[C@H](c1ccc([C@@H](CO)N(CCC(C)(C)C)S(=O)(=O)c2ccc3ocnc3c2)s1)C(F)(F)F)C(c1ccccc1)c1ccccc1` [Example 96, N-[(1S)-1-(5-{(1R)-1-[(1,3-benzoxazol-5-ylsulfonyl)(3,3-dimethylbutyl)amino]-2-hydroxyethyl}thiophen-2-yl)-2,2,2-trifluoroethyl]-Nα-(methoxycarbonyl)-β-phenyl-L-phenylalaninamide], for which the half-maximal inhibitory concentration (IC50) is 1.95 nM. The value for `COC(=O)N[C@H](C(=O)NCc1ccc([C@@H](CO)N(Cc2cc3cccnc3[nH]2)S(=O)(=O)c2ccc3scnc3c2)s1)C(c1ccccc1)c1ccccc1` [Example 35] was 11.9 nM; that for `COC(=O)N[C@H](C(=O)NCc1ccc(C(CO)N(Cc2cn[nH]c2)S(=O)(=O)c2ccc3scnc3c2)s1)C(c1ccccc1)c1ccccc1` (stereo partly shown) [Example 31] was 3.62 nM; that for `COC(=O)N[C@H](C(=O)N[C@H](c1ccc([C@@H](CO)N(CCC(C)C)S(=O)(=O)c2ccc(N)cc2)s1)C(F)(F)F)C(c1ccccc1)c1ccccc1` [Example 83, N-[(1S)-1-{5-[(1R)-1-{[(4-aminophenyl)sulfonyl](3-methylbutyl)amino}-2-hydroxyethyl]thiophen-2-yl}-2,2,2-trifluoroethyl]-Nα-(methoxycarbonyl)-β-phenyl-L-phenylalaninamide] was 0.3 nM.

As to `COC(=O)N[C@H](C(=O)N[C@H](c1ccc([C@@H](CO)N(CCC(C)(C)C)S(=O)(=O)c2ccc3cn[nH]c3c2)s1)C(F)(F)F)C(c1ccccc1)c1ccccc1` [Example 102, N-[(1S)-1-(5-{(1R)-1-[(3,3-dimethylbutyl)(1H-indazol-6-ylsulfonyl)amino]-2-hydroxyethyl}thiophen-2-yl)-2,2,2-trifluoroethyl]-Nα-(methoxycarbonyl)-β-phenyl-L-phenylalaninamide], the half-maximal inhibitory concentration (IC50) stood at 0.63 nM. Under `[2H]C([2H])([2H])C([2H])(N([C@H](CO)c1ccc([C@@H](NC(=O)[C@@H](NC(=O)OC)C(c2ccccc2)c2ccccc2)C(F)(F)F)s1)S(=O)(=O)c1ccc(N)cc1F)C([2H])([2H])[2H]` [Example 108, N-[(1S)-1-{5-[(1R)-1-{[(4-amino-2-fluorophenyl)sulfonyl][(2-^2H)propan-2-yl]amino}-2-hydroxyethyl]thiophen-2-yl}-2,2,2-trifluoroethyl]-Nα-(methoxycarbonyl)-β-phenyl-L-phenylalaninamide] stands 9.4 nM. Under `COC(=O)N[C@H](C(=O)NCc1ccc([C@@H](CO)N(CC2CC(F)(F)C2)S(=O)(=O)c2ccc3c(c2)CCC3O)s1)C(c1ccccc1)c1ccccc1` (stereo partly shown) [Example 37] stands 5.65 nM. In the case of `COC(=O)N[C@H](C(=O)NCc1ccc(C(CO)N(Cc2ccnc(OC)c2)S(=O)(=O)c2ccc3scnc3c2)s1)C(c1ccccc1)c1ccccc1` (stereo partly shown) [Example 27], the half-maximal inhibitory concentration (IC50) was 15.5 nM. With `COC(=O)N[C@H](C(=O)N[C@H](c1ccc([C@@H](CO)N(CC(C)C)S(=O)(=O)c2ccc(N)cc2)s1)C1CC1)C(c1ccccc1)c1ccccc1` [Example 63, N-[(S)-{[4(1R)-1-{[(4-aminophenyl)sulfonyl](2-methylpropyl)amino}-2-hydroxyethyl]thiophen-2-yl}(cyclopropyl)methyl]-Nα-(methoxycarbonyl)-β-phenyl-L-phenylalaninamide], the IC50 was 3.98 nM. The value for `COC(=O)N[C@H](C(=O)N[C@H](c1ccc([C@@H](CO)N(CCC(C)(C)C)S(=O)(=O)c2ccc3[nH]ncc3c2)s1)C(F)(F)F)C(c1ccccc1)c1ccccc1` [Example 93, N-[(1S)-1-(5-{(1R)-1-[(3,3-dimethylbutyl)(1H-indazol-5-ylsulfonyl)amino]-2-hydroxyethyl}thiophen-2-yl)-2,2,2-trifluoroethyl]-Nα-(methoxycarbonyl)-β-phenyl-L-phenylalaninamide] was 0.31 nM; that for `COC(=O)N[C@H](C(=O)N[C@H](c1ccc([C@@H](CO)N(C(C)C)S(=O)(=O)c2ccc(CO)cc2)s1)C(F)(F)F)C(c1ccccc1)c1ccccc1` [Example 65, Nα-(methoxycarbonyl)-β-phenyl-N-[(1S)-2,2,2-trifluoro-1-(5-{(1R)-2-hydroxy-1-[{[4-(hydroxymethyl)phenyl]sulfonyl}(propan-2-yl)amino]ethyl}thiophen-2-yl)ethyl]-L-phenylalaninamide] was 0.18 nM. Turning to `COC(=O)N[C@H](C(=O)N[C@H](c1ccc([C@@H](CO)N(CCC(C)(C)C)S(=O)(=O)c2ccc3cc[nH]c3c2)s1)C(F)(F)F)C(c1ccccc1)c1ccccc1` [Example 94, N-[(1S)-1-(5-{(1R)-1-[(3,3-dimethylbutyl)(1H-indol-6-ylsulfonyl)amino]-2-hydroxyethyl}thiophen-2-yl)-2,2,2-trifluoroethyl]-Nα-(methoxycarbonyl)-β-phenyl-L-phenylalaninamide], the IC50 amounted to 0.09 nM.

As for `CC(C)CN(C(CO)c1ccc(CNC(=O)C(NC(=O)c2ccccc2)C(c2ccccc2)c2ccnc3ccccc23)s1)S(=O)(=O)c1ccc2ncsc2c1` (stereo not shown) [Example 125, N-[1-[[5-[1-(1,3-benzothiazol-6-ylsulfonyl(isobutyl)amino)-2-hydroxy-ethyl]-2-thienyl]methylcarbamoyl]-2-phenyl-2-(4-quinolyl)ethyl]benzamide], the IC50 turned out to be 409 nM. For `COC(=O)N[C@H](C(=O)N[C@H](c1ccc([C@@H](CO)N(CCc2ccccc2)S(=O)(=O)c2ccc(N)cc2)s1)C(F)(F)F)C(c1ccccc1)c1ccccc1` [Example 89, N-[(1S)-1-{5-[(1R)-1-{[(4-aminophenyl)sulfonyl](2-phenylethyl)amino}-2-hydroxyethyl]thiophen-2-yl}-2,2,2-trifluoroethyl]-Nα-(methoxycarbonyl)-β-phenyl-L-phenylalaninamide], the half-maximal inhibitory concentration (IC50) was 2.6 nM. The value for `COC(=O)N[C@H](C(=O)N[C@H](c1ccc([C@@H](CO)N(CCC(C)(C)C)S(=O)(=O)c2cc(F)c(CO)c(F)c2)s1)C(F)(F)F)C(c1ccccc1)c1ccccc1` [Example 52, N-[(1S)-1-(5-{(1R)-1-[{[3,5-difluoro-4-(hydroxymethyl)phenyl]sulfonyl}(3,3-dimethylbutyl)amino]-2-hydroxyethyl}thiophen-2-yl)-2,2,2-trifluoroethyl]-Nα-(methoxycarbonyl)-β-phenyl-L-phenylalaninamide] was 2 nM; that for `COC(=O)N[C@H](C(=O)NCc1ncc(C(CO)N(CCC(C)C)S(=O)(=O)c2ccccc2)s1)C(c1ccccc1)c1ccccc1` (stereo partly drawn) [Example 3, N-[(5-{2-hydroxy-1-[(3-methylbutyl)(phenylsulfonyl)amino]ethyl}-1,3-thiazol-2-yl)methyl]-Nα-(methoxycarbonyl)-β-phenyl-L-phenylalaninamide] was 12.1 nM.

For `COC(=O)N[C@H](C(=O)N[C@H](c1ccc([C@@H](CO)NS(=O)(=O)c2ccc(N)cc2)s1)C(F)(F)F)C(c1ccccc1)c1ccccc1` [Example 87, N-[(1S)-1-{5-[(1R)-1-{[(4-aminophenyl)sulfonyl]amino}-2-hydroxyethyl]thiophen-2-yl}-2,2,2-trifluoroethyl]-Nα-(methoxycarbonyl)-β-phenyl-L-phenylalaninamide], the 50% inhibitory concentration (IC50) came out at 194 nM. Regarding `COC(=O)N[C@H](C(=O)N[C@H](c1ccc([C@@H](CO)N(C(C)C)S(=O)(=O)c2ccc3cc[nH]c3c2)s1)C(F)(F)F)C(c1ccccc1)c1ccccc1` [Example 79, Nα-(methoxycarbonyl)-β-phenyl-N-[(1S)-2,2,2-trifluoro-1-(5-{(1R)-2-hydroxy-1-[(1H-indol-6-ylsulfonyl)(propan-2-yl)amino]ethyl}thiophen-2-yl)ethyl]-L-phenylalaninamide], the IC50 was 12.5 nM. In the case of `COC(=O)N[C@H](C(=O)NCc1ccc([C@H](CO)N(CC(C)C)S(=O)(=O)c2ccc3scnc3c2)s1)C(c1ccccc1)c1ccccc1` [Example 23], the IC50 was found to be 60.9 nM. The value for `COC(=O)N[C@H](C(=O)N[C@H](c1ccc([C@@H](CO)N(CC(C)C)S(=O)(=O)c2ccc(N)cc2)s1)C(F)(F)F)C(c1ccccc1)c1ccccc1` [Example 60, N-[(1S)-1-{5-[(1R)-1-{[(4-aminophenyl)sulfonyl](2-methylpropyl)amino}-2-hydroxyethyl]thiophen-2-yl}-2,2,2-trifluoroethyy]-Nα-(methoxycarbonyl)-β-phenyl-L-phenylalaninamide] was 2.01 nM; that for `COC(=O)N[C@H](C(=O)NCc1ccc([C@@H](CO)N(CC2CC(F)(F)C2)S(=O)(=O)c2cccc(CC(C)(C)O)c2)s1)C(c1ccccc1)c1ccccc1` [Example 15] was 6.6 nM; that for `COC(=O)N[C@H](C(=O)N[C@H](c1ccc([C@@H](CO)N(CCC(C)(C)C)S(=O)(=O)c2ccc(-n3ncnn3)cc2)s1)C(F)(F)F)C(c1ccccc1)c1ccccc1` [Example 110] was 10.5 nM.

Turning to `COC(=O)N[C@H](C(=O)NCc1ccc([C@@H](CO)N(CC2CC(F)(F)C2)S(=O)(=O)c2ccc(N)c(F)c2)s1)C(c1ccccc1)c1ccccc1` [Example 43], the concentration for half-maximal inhibition (IC50) amounted to 5.04 nM. Under `COC(=O)N[C@H](C(=O)NCc1ccc([C@@H](CO)N(CC2CC(F)(F)C2)S(=O)(=O)c2ccc3cc[nH]c3c2)s1)C(c1ccccc1)c1ccccc1` [Example 41] stands 8.83 nM.

The term IC50 denotes the concentration that inhibits the measured activity by half.
